Patent US20110206689A1, “Molecular Determinants Associated With Prostate Cancer And Methods Of Use Thereof” (Dana-Farber Cancer Institute, Inc., priority 2010, published 2011)

How the values were obtained:
Assay type in all cases: cell-based, human
TK1 [1] = assay: Androgen induction of TK1 protein expression in LNCaP cells (immunoblot); conditions: LNCaP cells in hormone depleted medium, 10 nM R1881, immunoblot
Procedure: FIG. 3. […] Androgen responsive LNCaP cells cultured in hormone depleted medium were treated with 10 nM of the synthetic androgen, R1881, for the indicated times, and TK1 expression was assayed by immunoblot analysis. […] Small hairpins targeting AR were introduced into LNCaP cells infected with TK1, or control uninfected LNCaP cells. Cell proliferation was monitored. Relative proliferation is normalized to the shGFP control.
(§1) Immunoblots were performed as previously described {Boehm, 2005 #51}. The following antibodies were used: TK1 (Abcam, ab57757), AR (Santa Cruz, sc-7305), Flag (Sigma, M2), PDK1 (Becton Dickinson, 611070), p-PDK1 (Becton Dickinson, 558395), AKT (Cell Signaling, 9272), p-AKT1-Thr308 (Cell Signaling, 4056), p-AKT1-Ser473 (Cell Signaling, 9271), p-AKT1-Thr450 (Cell Signaling, 9267), p-AKT1-Tyr326 (Cell Signaling, 2968), Actin (Santa Cruz, sc-47778).
TK1 has been reported to be induced by androgens in the rat prostate. […] To elucidate whether TK1 is sufficient to replace AR signaling in promoting cell proliferation and survival, we silenced AR expression in LNCaP cells by RNAi in the presence or absence of ectopic TK1 expression, and monitored cell death.

[2] = tested on: prostate cancer cell lines; assay: Effect of TK1 shRNA on proliferation of prostate cancer cell lines (all cultures); conditions: for cells remaining 12 days post infection: all cultures
From the text: FIG. 2. TK1 overexpression synergizes with AKT1 to promote hormone independent prostate cancer. a) Androgen independent tumor formation. LHSR-AR cells were infected with the indicated constructs and injected subcutaneously into castrated mice, except where indicated. M-myristoylated; F-Flag tagged. b) AKT1 and TK1 promote nuclear translocation of AR independent of androgen. H&E and immunhistochemical staining for AR in subcutaneous tumor sections derived from LHSR-AR cells infected with the indicated constructs. Staining of androgen dependent GFP tumor is shown as control. Minimum of 3 tumors were stained per sample and representative images are shown. c) TK1 chromosomal amplification in hormone sensitive and refractory tumors. DNA from 16 hormone sensitive (HS) and 23 hormone refractory (HR) human prostate tumors (from FIG. 1b) were hybridized onto SNP arrays and analyzed for TK1 copy number gain (CNG). The number and percentage of tumors with and without amplification are indicated. d) TK1 protein expression in hormone sensitive and refractory tumors. Prostate tumor microarrays containing 73 hormone sensitive (HS) and 11 hormone resistant (HS) tumor cores were analyzed for TK1 protein expression by immunohistochemistry. The number and percentage of tumors negative and positive for TK1 expression are indicated. d) Immunoblot analysis for TK1 expression in the indicated prostate cancer cell lines. Actin was used to control for loading. e) Effect of TK1 suppression on the proliferation of prostate cancer cells. […] Relative cell number is normalized to the shGFP control.
Stable suppression of TK1 and AR were accomplished by using the pLKO.1-puro lentiviral shRNA constructs previously described {Moffat, 2006 #52}. The sequences targeted by the hairpins are as follows: shTK1-3, […] (SEQ ID NO: 1); shTK1-4, […] (SEQ ID NO: 2); shTK1-5, […] (SEQ ID NO: 3); shAR-1, […] […] Viable cells were counted using a Coulter Counter.
(§2) Next, we determined whether suppressing the expression of TK1 in prostate cancer cell lines that overexpress TK1 reverses their ability to proliferate or survive. […]

TK1 [3] = assay: Suppression of TK1 expression by shRNA in prostate cancer cell lines; conditions: lentiviral shRNA
Procedure: as §1
Stable suppression of TK1 and AR were accomplished by using the pLKO.1-puro lentiviral shRNA constructs previously described {Moffat, 2006 #52}. The sequences targeted by the hairpins are as follows: shTK1-3, […] (SEQ ID NO: 1); shTK1-4, […] (SEQ ID NO: 2); shTK1-5, […] (SEQ ID NO: 3); shAR-1, […] (SEQ ID NO: 4); shAR-4, […] (SEQ ID NO: 5); shAR-5, […] (SEQ ID NO: 6); shGFP, Experiments were performed in duplicate, in both the presence and absence of 1.5 ug/ml puromycin to monitor infection efficiency. Viable cells were counted using a Coulter Counter.
as §2

C4-2 cells = assay: Effect of TK1 suppression by shRNA on cell number of prostate cancer cells (viable cells counted with Coulter Counter); conditions: C4-2 cultures, relative to shGFP control
From the text: (§3) FIG. 2. TK1 overexpression synergizes with AKT1 to promote hormone independent prostate cancer. a) Androgen independent tumor formation. LHSR-AR cells were infected with the indicated constructs and injected subcutaneously into castrated mice, except where indicated. M-myristoylated; F-Flag tagged. b) AKT1 and TK1 promote nuclear translocation of AR independent of androgen. H&E and immunhistochemical staining for AR in subcutaneous tumor sections derived from LHSR-AR cells infected with the indicated constructs. Staining of androgen dependent GFP tumor is shown as control. Minimum of 3 tumors were stained per sample and representative images are shown. c) TK1 chromosomal amplification in hormone sensitive and refractory tumors. DNA from 16 hormone sensitive (HS) and 23 hormone refractory (HR) human prostate tumors (from FIG. 1b) were hybridized onto SNP arrays and analyzed for TK1 copy number gain (CNG). The number and percentage of tumors with and without amplification are indicated. d) TK1 protein expression in hormone sensitive and refractory tumors. Prostate tumor microarrays containing 73 hormone sensitive (HS) and 11 hormone resistant (HS) tumor cores were analyzed for TK1 protein expression by immunohistochemistry. The number and percentage of tumors negative and positive for TK1 expression are indicated. d) Immunoblot analysis for TK1 expression in the indicated prostate cancer cell lines. Actin was used to control for loading. e) Effect of TK1 suppression on the proliferation of prostate cancer cells. Cells were infected with three different hairpins targeting TK1 and a control hairpin targeting GFP, and cell numbers determined 5 days post infection. Relative cell number is normalized to the shGFP control.
(§4) LHSR-AR {Berger, 2004 #15}, LNCaP {Horoszewicz, 1980 #23}, C4-2 {Wu, 1994 #18}, CL-1 {Patel, 2000 #16}, LNCaP-abl {Culig, 1999 #49} and LAPC4 {Klein, 1997 #34} cells have previously been described. LHSR-AR cells were cultured in PrEGM with growth supplements (Lonza). LNCaP were cultured in RPMI supplemented with 10% fetal bovine serum, 1 mM sodium pyruvate and 10 mM Hepes. C4-2, CL-1 and LNCaP-abl were cultured in phenol red free RMPI supplemented with 10% charcoal stripped fetal bovine serum, 1 mM sodium pyruvate and 10 mM Hepes. LAPC4 cells were cultured in IMDM supplemented with 10% fetal bovine serum and 1 nM R1881.
(§5) Stable suppression of TK1 and AR were accomplished by using the pLKO.1-puro lentiviral shRNA constructs previously described {Moffat, 2006 #52}. The sequences targeted by the hairpins are as follows: shTK1-3, […] […] Viable cells were counted using a Coulter Counter.
as §2

CL-1 cells = assay: as above; conditions: relative to shGFP control
From the text: as §3, §4, §5, §2

| Molecule | TK1 protein expression (TK1 [1]) | proliferation ([2]; prostate cancer cell lines, 5 days post infection) | suppression of TK1 expression (TK1 [3]) | cells remaining 12 days post infection [2] | cell number 5 days post infection (C4-2 cells) | cell number 5 days post infection (CL-1 cells) |
| --- | --- | --- | --- | --- | --- | --- |
| C[C@]1(O)CC[C@H]2[C@@H]3CCC4=CC(=O)CCC4=C3C=C[C@@]21C [R1881] | androgen induced | – | – | – | – | – |
| shTK1-3: pLKO.1-puro lentiviral shRNA targeting TK1 sequence AGACCGTAATTGTGGCTGCAC (SEQ ID NO: 1) (target site or template, no part of the molecule) | – | did not affect proliferation | did not efficiently suppress TK1 expression | – | – | – |
| shTK1-4: pLKO.1-puro lentiviral shRNA targeting TK1 sequence GGGAAGCCGCCTATACCAAGA (SEQ ID NO: 2) (target site or template, no part of the molecule) | – | – | – | few cells remaining | reduced cell number | did not significantly affect |
| shTK1-5: pLKO.1-puro lentiviral shRNA targeting TK1 sequence TGTCGGCTCTGCTACTTCAAG (SEQ ID NO: 3) (target site or template, no part of the molecule) | – | – | – | few cells remaining | reduced cell number | did not significantly affect |
